The text below walks through data of PMC11326893, “A comprehensive measure of Golgi sphingolipid flux using NBD C6-ceramide: evaluation of sphingolipid inhibitors” (Journal of Lipid Research, 2024).

Test [1] has as its target T1, ceramide kinase (CERK) (Homo sapiens, UniProt Q8TCT0).
T1 sequence (Q8TCT0 1-537): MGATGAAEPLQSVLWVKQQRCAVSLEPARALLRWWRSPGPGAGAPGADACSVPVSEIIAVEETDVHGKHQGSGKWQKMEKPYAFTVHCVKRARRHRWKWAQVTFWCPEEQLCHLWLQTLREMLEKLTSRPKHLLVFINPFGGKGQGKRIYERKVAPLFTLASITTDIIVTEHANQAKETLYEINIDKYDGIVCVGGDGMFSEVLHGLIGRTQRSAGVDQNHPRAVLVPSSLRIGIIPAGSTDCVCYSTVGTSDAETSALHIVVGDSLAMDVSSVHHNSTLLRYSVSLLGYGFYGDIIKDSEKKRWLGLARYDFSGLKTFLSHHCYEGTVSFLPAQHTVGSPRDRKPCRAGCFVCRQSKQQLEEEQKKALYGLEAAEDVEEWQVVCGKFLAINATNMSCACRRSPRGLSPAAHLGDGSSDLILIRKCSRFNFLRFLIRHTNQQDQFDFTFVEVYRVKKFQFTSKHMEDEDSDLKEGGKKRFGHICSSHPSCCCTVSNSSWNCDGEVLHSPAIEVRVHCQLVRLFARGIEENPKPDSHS
As to the kind of experiment: in vitro activity assay with purified recombinant CERK, NBD-C6-Cer substrate; only about […] decrease at […]. In kind it is biochemical. Also noted: full-length human CERK. As to conditions: read-out: % decrease in activity at 50 μM and 100 μM.

For test [2], the target named is T1, ceramide kinase (CERK). As to the kind of experiment: NBD-C6-ceramide to NBD-C1P conversion (HPLC, fluorescence) in MCF7 cells overexpressing CERK. In kind it is cell-based.
The target in test [3] is T2, glucosylceramide synthase (GCS) (Homo sapiens, UniProt Q16739).
T2 construct: gene UGCG
T2 sequence (Q16739 1-394): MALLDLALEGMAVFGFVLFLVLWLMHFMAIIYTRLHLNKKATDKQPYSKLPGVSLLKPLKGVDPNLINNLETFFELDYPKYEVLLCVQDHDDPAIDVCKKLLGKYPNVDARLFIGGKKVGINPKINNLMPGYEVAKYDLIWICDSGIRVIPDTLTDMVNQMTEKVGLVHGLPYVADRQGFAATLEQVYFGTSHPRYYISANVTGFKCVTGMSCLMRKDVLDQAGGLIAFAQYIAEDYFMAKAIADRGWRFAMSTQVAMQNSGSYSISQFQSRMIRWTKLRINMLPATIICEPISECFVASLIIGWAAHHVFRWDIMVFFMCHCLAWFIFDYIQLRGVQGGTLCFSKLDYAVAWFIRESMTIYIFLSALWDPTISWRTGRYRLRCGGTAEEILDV
Nature of the test: NBD-C6-ceramide to NBD-HexCer conversion in MCF7 cells, […] eliglustat. In kind it is cell-based.

Take `CCCCCCCCCC(=O)NC(CN1CCOCC1)C(O)c1ccccc1` (stereo not drawn) [PDMP, 1-phenyl-2-decanoylamino-3-morpholino-1-propanol]: the inhibition at 50 µM at ceramide kinase (CERK) [1] was determined as 20%.
As usually defined, the IC50 is the midpoint of a concentration-inhibition curve. A lower IC50 goes with greater potency in that assay. The compound `O=C(Nc1nc2ccc(NC(=O)C34CC5CC(CC(C5)C3)C4)cc2s1)c1ccccc1` [NVP-231] came in with an IC50 against ceramide kinase (CERK) [2] of less than 10 nM.
Regarding `CCCCCCCC(=O)N[C@H](CN1CCCC1)[C@H](O)c1ccc2c(c1)OCCO2` [eliglustat], the “NBD-C6-ceramide to NBD-HexCer conversion in MCF7 cells, 50 nM eliglustat” value in test [3] is “Inhibition with eliglustat and PDMP both nearly eliminated the production of NBD-C6-HexCer”.
